Series [1] has as its system Malignant melanoma of the pigmented layers of eyes. Briefly: Inhibition of tumor cell proliferation, malignant melanoma of eyes. Format: cell-based. As to conditions: 1 μg/ml, 72 hours. The procedure:
(§1) Human tumor cell lines: Hela leukemia HL-60, malignant melanocarcinoma B16, oral epidermoid carcinoma (KB), lung carcinoma (A549), breast carcinoma MCF-7, adenocarcinoma of stomach.
(§2) Animal tumor cell lines: Walker carcinoma, LLC-WRC-256, malignant melanoma (RMMI 1846), 3T3, and S-180 sarcoma (CCRF-180). All lines were routinely cultured in the RPMI1640 medium supplemented 20% fetal calf serum. The experiment was carried out in 96 microplate, each well had 5×10^5 cells and given desired concentration of 1 μg/ml (1×10^−6 g/ml) drug. Then the plate was incubated at […] in an atmosphere of humidified air enriched with 5 percent carbon dioxide for 72 hours.
(§3) Inhibition percent rate of tumor cell proliferation was obtained according to the bellow formula.

The test system of the next series is HL-60 cells. Description: Cellular diversion of human leukemic cells (NBT). Format: cell-based. As to conditions: human leukemic cells (HL-60); index of normal cells.
For the next series, the system named is gastric cancer cells. Briefly: Cellular diversion of gastric cancer cells (NBT). It is filed as cell-based.
In the next series the test system is Leukemic cells. Description: Inhibition of tumor cell proliferation, leukemic cells. It is filed as cell-based, human. As to conditions: 1 μg/ml, 72 hours. The procedure: as §1, §2, §3
The subject of a further series is Malignant melanoma cells. Description: Apoptosis of malignant melanoma cells. Format: cell-based. As to conditions: 50 ng/ml. The procedure:
(§4) Cells ([…] were incubated in 10 ml IMDM plus […] heat-inactivated fetal calf serum. Samples were incubated for 24 hours with various concentrations of drugs. Control samples received the same amount of media, without drug addition. After 24 hours of incubation the samples were pelleted and fixed in ethanol […] for 15 minutes at 4° C.; after three washes in PBS, the cells were treated with RNase I 0.5 mg/ml for 15 minutes at 37° C. The cells were harvested by centrifugation and resuspended in 50 μg/ml propidium iodide in PBS. Analysis (upon acquisition of 10,000-20,000 events) was performed on a FACscan flow cytometer with the FL2 detector in logarithmic mode, using Lysis II software (Becton Dickinson). […]
(§5) For evaluation of apoptosis by flow cytometry, cells were fixed and permeabilized in 1% paraformaldehyde and ice-cold 70% ethanol. […] Green (apoptotic cells) and orange (total DNA) fluorescence were measured with a FACScan flow cytometer and analyzed with LYSIS II and CELLFIT programs. Data were analyzed by Student's t-test. […]
(§6) Untreated and treated HL-60 cells collected by centrifugation, washed in phosphate buffered saline and re-suspended at a concentration of 5×10^6 cells and 0.1% RNase A. The mixture was incubated at 37° C. for 30 min and then incubated for an additional 30 min at 37° C. […] DNA was precipitated with 0.5 N perchloric acid and quantitated using diphenylamine reagent. […]

A further series relates to L615 transplanted tumor. Briefly: Growth of transplanted tumor in mice. It is filed as in vivo. As to conditions: intraperitoneally, 20 mg/kg, sacrificed on the 12th day. The procedure: Male mice, weight 20-22 g, were used in the experiment. 1×10^7 tumor cells were injected to mouse and other drugs injected intraperitoneally began second day. All mice were sacrificed on the 12th day, isolated the tumor and weighed and calculated the inhibition rate of tumor weight.
The effect of HHT on the growth of animal transplanted tumor as illustrated by the Table 6.20 mg/kg of other drugs could inhibit the growth of L615 transplanted tumor.

For the next series, the system named is tyrosine kinase (TK). Description: Tyrosine kinase (TK) assay in HL-60 leukemia cells. As to conditions: for % of control activity (TK): Table 8, concentration not given. It is filed as cell-based, human. The procedure:
Tyrosine kinase (TK) Assay: TK was measured by a modification of the method of Braun et al. Briefly, H-60 leukemia cells were plated at a density of 5×10^5 cells in […], and divided control and treatments groups for incubation 24 hours at 37° C. with 5% CO2. The cells were collected by scraping, washed twice with phosphate-buffered saline, and resuspended at density of 10^6 cells/ml in 5 mM HEPEs buffer (pH 7.4). The cells were then resuspended in 1 ml of buffer containing 5 mM HEPES (pH 7.6), 1 mM MgCl2 and 1 mM EDTA, then placed on ice bath. The cell membrane was disrupted by ultra sound and centrifuged at 1,000×g for 10 minutes. The supernatant was ultra centrifuged at 30,000×g for 30 minutes at 4° C. The pellet was resuspended in 0.3 ml of buffer containing 25 mM HEOES, centrifuged at 12,000×g for 5 minutes. The resulting supernatant was used for TK assay. Content of protein was determined. 10 μg of protein placed in 20 mM HEPES (pH 7.6), 15 mM MgCl2, 10 mM ZnCl2 and 5% (v/v) nonidet P-40, with or without substrate [glutamic acid (GT), mg/ml]. After 5 minutes incubation at 25° C., the reaction was initiated by the addition of 25 μM [γ^32P] ATP (3 ci/mmol). After 10 minutes, the reaction was stopped by the addition of 20 mM cold ATP. 50 μl of the mixtures were spotted on glass microfiber filter discs and washed three times with cold trichloroacetic acid (TCA), contained 10 mM sodium pyrophosphate. Air dried. Radioactivity was determined by liquid scintillation spectrometry. The net TK activity was determined after correcting for endogenous TK activity.

The next series has as its system Normal cells. Briefly: Apoptosis of normal cells. Format: cell-based. As to conditions: 50 ng/ml (Table 4). The procedure:
as §4, §5, §6

In a further series the test system is mice. Briefly: LD50 in mice. As to conditions: injection in abdominal cavity in mice. Format: in vivo. The source says:
(§7) • 1. […] LD50 of HHT is much higher than majority anticancer drugs. The toxicology data of HHT mean that HHT is safe drug for treatment of cancer cells.

The subject of series [2] is NNK-induced pulmonary adenomas. Briefly: NNK-induced lung tumorigenesis. It is filed as in vivo. As to conditions: mice, 20 mg/kg daily by injection, NNK 10 μmol i.p., sixteen weeks. The procedure:
Every group had 20 mice. […] For control group, each mouse was gave same volume of physiological saline. Three days later, mice were gave 10 μmol NNK (in 0.1 ml saline) by i.p. injection. Sixteen weeks after these treatments the mice were killed and pulmonary adenomas were counted. The statistical significance of bioassay data was determined by student's test.

Series [3] relates to dogs. Description: Short-term toxicity in dogs.
Description: (§8) Forty dogs were used. Body weight, food consumption, general observations, laboratory tests, and postmortem examinations were determined.
(§9) Twenty normal adult dogs had weight approximately 10 kg±1 kg used in experiments. Toxic doses for dogs: 0.15 mg/kg/days×7 and 0.30 mg/kg/days×7 of HHT was injected as the toxic doses.
(§10) For HHT treatment group, at least eight dogs that died early in the observation period and eight dogs that died late were examined.
Series [4] concerns dogs. As to conditions: dog, in vivo.
Description: as §8, §9, §10
The next series can be described thus: LD50 in mice. As to conditions: mouse, in vivo, intraperitoneal; injection in abdominal cavity in mice. Format: in vivo.
Description: as §7

Read-outs that look alike come from different tables or passages of the source.

Broadly, the LD50 is the dose expected to kill half of the subjects tested. `COC(=O)C[C@](O)(CCCC(C)(C)O)C(=O)O[C@@H]1C(OC)=C[C@]23CCCN2CCc2cc4c(cc2[C@H]13)OCO4` [C-HHT]: the “Inhibition (%)” value in series [1] worked out at 83.1 ± 9.8%; in the series with Leukemic cells it was 74.1 ± 10.8%. For the same molecule, the “NBT (%)” value in the series with HL-60 cells turned out to be 64 ± 8.0 %; in the series on gastric cancer cells it was 57 ± 8.9 %. The “Apoptosis (%)” value in the series with Malignant melanoma cells came out at 43.8 ± 4.2 %; in the series with Normal cells, 19.2 ± 2.5 %. Also, the “Inhibition (%) of transplanted tumor (tumor weight)” value with L615 transplanted tumor is recorded as 67.8 ± 6.0%. In addition, the “% of control activity (TK)” value in the series with tyrosine kinase (TK) is on record as 20.0 ± 5.0%. The same molecule displayed an LD50 in the series with mice of 4.0 mg/kg. Further, in series [2], the “Tumor incidence (%)” value is reported as 21.7 ± 4.8 %.
Broadly, the inhibition is the share of the control response that was lost under treatment. A low value points to little suppression. As for `COC(=O)C[C@](O)(CCCC(C)(C)O)C(=O)O[C@@H]1C(OC)=C[C@]23CCCN2CCc2cc4c(cc2[C@H]13)OCO4` [HHT, Homoharringtonine], the inhibition at 1 µg/mL in series [1] was determined as 80 ± 9.2%. Also, the Heart rate in the series on dogs [3] (0.1 mg/kg/d × 7, ♀) is 208 beat/min; in the series with dogs [3] (0.2 mg/kg/d × 7, ♀) it was 232 beat/min; in the series on dogs [3] (0.3 mg/kg/d × 7, ♀) it was 260 beat/min; with dogs [4] (0.1 mg/kg/day), 205 beat/min; in the series on dogs [4] (0.2 mg/kg/day) it was 230 beat/min; in the series on dogs [4] (0.3 mg/kg/day), 259 beat/min. Further, the Leukocyte count with dogs [3] (0.1 mg/kg/d × 7, ♀) is 3.91 ×10^3/mm^3; in the series with dogs [3] (0.2 mg/kg/d × 7, ♀) it was 3.65 ×10^3/mm^3; in the series with dogs [3] (0.3 mg/kg/d × 7, ♀) it was 3.25 ×10^3/mm^3; in the series with dogs [4] (0.1 mg/kg/day) it was 3.90 ×10^3/mm^3; in the series with dogs [4] (0.2 mg/kg/day), 3.58 ×10^3/mm^3; in the series with dogs [4] (0.3 mg/kg/day), 3.20 ×10^3/mm^3. Besides, the delayed toxicity result in the series on dogs [4] is “No significant delayed toxicity”. For the same molecule, the “major target organs involved in toxicity” value in the series on dogs [4] was “G.I. tract, heart and hematopoietic organs”. Besides, the “inhibition of TK activity” value in the series with tyrosine kinase (TK) (10^−6 M) is on record as 99.9%. The molecule further displayed an LD50 in the series “LD50 in mice” of 4.07 mg/kg.
In the case of `COC(=O)C[C@](O)(CCCC(C)(C)O)C(=O)O[C@@H]1C(OC)=C[C@]23CCCN2CCc2cc4c(cc2[C@H]13)OCO4` [S-HHT], the “Inhibition (%)” value in series [1] is on record as 82.5 ± 10.2%; in the series with Leukemic cells, 72.5 ± 11.6%. Besides, in the series on HL-60 cells, the “NBT (%)” value was determined as 63 ± 7.8 %. Moreover, the entries for the “Apoptosis (%)” value in the series with Malignant melanoma cells and in the series on Normal cells were 43.0 ± 6.0 % and 18.0 ± 2.0 %, respectively. For the same molecule, the “Inhibition (%) of transplanted tumor (tumor weight)” value in the series on L615 transplanted tumor is recorded as 69.2 ± 7.0 %. In the series on tyrosine kinase (TK), the “% of control activity (TK)” value worked out at 20.8 ± 4.8 %. Also, the LD50 in the series with mice is 4.20 mg/kg. Moreover, the “Tumor incidence (%)” value in [2] is on record as 26.5 ± 4.9 %.
